Reference: patent US20240368134A1, “AROMATIC COMPOUND, PHARMACEUTICAL COMPOSITION, AND APPLICATION THEREOF” (SHANGHAI KYGENT PHARMACEUTICAL CO., LTD, priority 2021, published 2024)
pIC50: −log10 of the molar value.

test system: NCI-H2052 cells; assay: Tumor cell proliferation inhibition experiment (Cell Titer Glo), NCI-H2052; format: cell-based; conditions: Homo sapiens, 72 h, NCI-H2052 lung cancer cells, three days incubation
Description: (§1) Cell Titer Glo luminescent cell viability assay kit was used to quantify the ATP content in cells, so as to quantify the number of viable cells. […] On the second day, the compound was added to the 96-well plate after a three-fold serial dilution to eight concentrations, and incubated at 37° C. for three days in the 5% carbon dioxide incubator. The culture medium was treated with the addition of Cell Titer Glo luminescent cell viability assay kit (Promega G7570) reagent, incubated for 10 minutes, and then placed in Envision (Pelkin Elmer) to read the luminescence signal. DMSO was used instead of the compound as a control to calculate the inhibition rate (inhibition rate %=(1−compound signal/DMSO signal)*100), and then standard four parameter curve fitting was used to calculate the inhibitory activity IC50.

Row | pIC50 | Compound
1 | 7.30 | C[C@H]1c2c(cc(F)c(Cl)c2-c2c(C(N)=O)cc3c(c2F)OC2CC32)O[C@]1(CN[C@H]1CC[C@](C)(O)CC1)c1ccccc1 (stereo partly drawn) [Compound 28a]
2 | 5.08 | CNC(=O)c1cc2c(c(F)c1-c1c(Cl)c(F)cc3c1C[C@](c1ccccc1)([C@@H]1CCCN1)O3)N1C[C@H](O)CC1CO2 (stereo partly drawn) [Compound 4a]
3 | 5.32 | CNC(=O)c1cc2c(c(F)c1-c1c(Cl)c(F)cc3c1C[C@](c1ccccc1)([C@@H]1CCCN1)O3)CC1(CC1)C2 [Compound 1a]
4 | 5.50 | CNC(=O)c1cc2c(c(F)c1-c1c(Cl)c(F)cc3c1C[C@](c1ccccc1)([C@@H]1CCCN1)O3)N1C[C@@H](F)CC1CO2 (stereo partly drawn) [Compound 5a]
5 | 7.40 | C[C@]1(O)CC[C@H](NC[C@@]2(c3ccccc3)Cc3c(cc(F)c(Cl)c3-c3c(C(N)=O)cc4c(c3F)OC3CC43)O2)CC1 (stereo partly drawn) [Compound 24a]
6 | < 5.00 | CNC(=O)c1cc2c(c(F)c1-c1c(Cl)c(F)cc3c1C[C@](c1ccccc1)([C@@H]1CCC(=O)N1)O3)C1CC1O2 (stereo partly drawn) [Compound 20a]
7 | 6.30 | CNC(=O)c1cc2c(c(F)c1-c1c(Cl)c(F)cc3c1C[C@](c1ccccc1)([C@@H]1CCCN1)O3)CCC2F (stereo partly drawn) [Compound 43a]
8 | 7.05 | CNC(=O)c1cc2c(c(F)c1-c1c(Cl)c(F)cc3c1C[C@@](CN[C@H]1CC[C@](C)(O)CC1)(c1ccccc1)O3)OC1CC21 (stereo partly drawn) [Compound 22a]
9 | 6.54 | CNC(=O)c1cc2c(c(F)c1-c1c(Cl)c(F)cc3c1C[C@@](CN[C@H]1CC[C@](C)(O)CC1)(c1ccccc1)O3)[C@H]1C[C@H]1O2 [Compound 14a1]

test system: MSTO-211H cells; assay: Tumor cell proliferation inhibition experiment (Cell Titer Glo), MSTO-211H; format: cell-based; conditions: Homo sapiens, 72 h, MSTO-211H lung cancer cells, three days incubation
Description: as §1

Row | pIC50 | Compound
10 | 7.40 | C[C@H]1c2c(cc(F)c(Cl)c2-c2c(C(N)=O)cc3c(c2F)OC2CC32)O[C@]1(CN[C@H]1CC[C@](C)(O)CC1)c1ccccc1 (stereo partly drawn) [Compound 28a]
11 | < 5.00 | CNC(=O)c1cc2c(c(F)c1-c1c(Cl)c(F)cc3c1C[C@](c1ccccc1)([C@@H]1CCCN1)O3)N1C[C@H](O)CC1CO2 (stereo partly drawn) [Compound 4a]
12 | 5.66 | CNC(=O)c1cc2c(c(F)c1-c1c(Cl)c(F)cc3c1C[C@](c1ccccc1)([C@@H]1CCCN1)O3)CC1(CC1)C2 [Compound 1a]
13 | 5.71 | CNC(=O)c1cc2c(c(F)c1-c1c(Cl)c(F)cc3c1C[C@](c1ccccc1)([C@@H]1CCCN1)O3)N1C[C@@H](F)CC1CO2 (stereo partly drawn) [Compound 5a]
14 | 7.70 | C[C@]1(O)CC[C@H](NC[C@@]2(c3ccccc3)Cc3c(cc(F)c(Cl)c3-c3c(C(N)=O)cc4c(c3F)OC3CC43)O2)CC1 (stereo partly drawn) [Compound 24a]
15 | < 5.00 | CNC(=O)c1cc2c(c(F)c1-c1c(Cl)c(F)cc3c1C[C@](c1ccccc1)([C@@H]1CCC(=O)N1)O3)C1CC1O2 (stereo partly drawn) [Compound 20a]
16 | 6.36 | CNC(=O)c1cc2c(c(F)c1-c1c(Cl)c(F)cc3c1C[C@](c1ccccc1)([C@@H]1CCCN1)O3)CCC2F (stereo partly drawn) [Compound 43a]
17 | 7.30 | CNC(=O)c1cc2c(c(F)c1-c1c(Cl)c(F)cc3c1C[C@@](CN[C@H]1CC[C@](C)(O)CC1)(c1ccccc1)O3)OC1CC21 (stereo partly drawn) [Compound 22a]
18 | 6.66 | CNC(=O)c1cc2c(c(F)c1-c1c(Cl)c(F)cc3c1C[C@@](CN[C@H]1CC[C@](C)(O)CC1)(c1ccccc1)O3)[C@H]1C[C@H]1O2 [Compound 14a1]
